The source of these data is patent US5856439A, “Farnesyl transferase inhibitors, preparation thereof, and pharmaceutical compositions containing same” (Rhone-Poulenc Rorer S.A., priority 1995, dated 1999).

The assay addresses T1, human farnesyl transferase purified from THP1 cell cultures (Homo sapiens, UniProt P49354+P49356).
T1 construct: human farnesyl transferase purified from THP1 cell cultures; endogenous in cells; host or cells: THP1 cell cultures (enzyme purified from them)
Kind of assay: Farnesyl transferase inhibition: [3H]farnesyl transfer from [3H]FPP to p21 H-ras. Type of assay: biochemical. As to conditions: 20 minutes at 37° C., 9 concentrations, each test repeated 3 times, read-out: Inhibitory activity IC50. The protocol: Farnesyl transferase activity is determined by the quantity of [^3 H]farnesyl transferred from [^3 H]farnesyl pyrophosphate [[^3 H]FPP) to the p21 H-ras protein. The standard reaction mixture is composed, for a final volume of 60 μl, of 50 mM Tris-HCl, 5 mM MgCl2, 5 mM dithiotreitol, 0.2% octyl β-D-glucopyranoside, 200 picomol p21 H-ras, 4.5 picomol [^3 H]FPP (activity 61000 dpm/picomol).
Reaction is initiated by adding approximately 5 ng of human farnesyl transferase purified from THP1 cell cultures. After incubation for 20 minutes at 37° C. in a microtitration plate containing 96 1-cm^3 wells per plate (Titer Plate®, Beckman), the reaction is stopped by adding 0.4 cm^3 of 0.1% SDS in methanol at 0° C. The mixture is then treated with 0.4 cm^3 of 30% trichloroacetic acid® (TCA) in methanol. The plates are left in ice for 1 hour. […] The membranes are dried in a microwave oven, then impregnated with scintillation medium by melting Meltilex® (Pharmacia) under hot air, and lastly counted in cpm in a β-Plate® counter (LKB). […]
The percentage inhibition values are obtained by comparison of the tests with and without inhibitor after deduction of blanks, the IC50 values being measured on the basis of the inhibitions obtained with 9 different concentrations using Enzfitter® or Grafit® software.

“Cys-(N-Me)Val-[trans-3-phenyl-DL-prolyl]-Met”: the IC50 was 920 nM. Take “Cys-(N-Me)Val-[cis-3-phenyl-DL-prolyl]-Met”: the IC50 worked out at 15.5 nM.
